Results taken from PMC3723878 (PLoS ONE, 2013).
Residue numbers refer to the chain shown, from its start.

Tests used:
α1A-AR [1] = molecular target: T1, α1A-AR (Homo sapiens, UniProt P35348); assay: Intracellular Ca^2+ release in CHO-K1 cells expressing the α1A-AR; type: cell-based; set-up: expressed in transfected cells; settings: for Emax: CHO-K1, read-out: Emax, Ca^2+ release
T1 sequence (P35348 1-466): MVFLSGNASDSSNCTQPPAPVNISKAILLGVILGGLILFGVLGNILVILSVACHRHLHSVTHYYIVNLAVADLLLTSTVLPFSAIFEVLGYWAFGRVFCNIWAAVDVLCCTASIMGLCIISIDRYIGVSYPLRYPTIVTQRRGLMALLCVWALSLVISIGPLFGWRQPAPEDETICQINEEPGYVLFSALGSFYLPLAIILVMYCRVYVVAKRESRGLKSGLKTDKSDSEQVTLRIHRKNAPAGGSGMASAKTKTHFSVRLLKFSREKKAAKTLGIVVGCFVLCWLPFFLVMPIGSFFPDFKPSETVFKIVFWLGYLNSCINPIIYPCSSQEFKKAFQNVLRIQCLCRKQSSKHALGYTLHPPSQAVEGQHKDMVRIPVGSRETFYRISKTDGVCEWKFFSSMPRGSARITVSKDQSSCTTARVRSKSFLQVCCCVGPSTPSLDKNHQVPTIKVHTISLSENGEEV
Procedure: (§1) CHO cells stably expressing α1-ARs were kindly provided by Dr. Hervé Paris (INSERM U858, Toulouse, France) and were grown in a 50∶50 Dulbecco's Modified Eagle's Medium (DMEM)/Ham's F12 medium supplemented with 10% (v/v) foetal bovine serum (FBS), glutamine (2 mM), penicillin (100 units/ml) and streptomycin (100 µg/ml) at 37°C with 5% CO2. COS-7 cells were grown at 37°C under 5% CO2 in Dulbecco's modified Eagle's medium containing 10% fetal calf serum, 1% penicillin and 1% glutamine (Sigma-Aldrich, St Quentin-Fallavier, France). At 80% confluence, the cells were transfected using a calcium phosphate precipitation method for transient expression of the genetic construct. After 48 h incubation at 37°C, cells were harvested and the membranes were prepared as follow. Cells were washed with ice-cold phosphate buffer and centrifuged at 1700 g for 10 min (4°C). The pellet was suspended in ice-cold buffer (1 mM EDTA, 25 mM sodium phosphate, and 5 mM MgCl2, pH 7.4) and homogenized using an Potter-Elvehjem homogenizer (Fisher Scientific Labosi, Elancourt, France). The homogenate was centrifuged at 1700 g for 15 min (4°C). The sediment was resuspended in buffer, homogenized, and centrifuged at 1700 g for 15 min (4°C). The combined supernatants were centrifuged at 35,000 g for 30 min (4°C), and the pellet was suspended in the same buffer (0.1 ml/dish). […] Cells were grown in a 50∶50 Dulbecco's Modified Eagle's Medium (DMEM)/Ham's F12 medium supplemented with 10% (v/v) foetal bovine serum (FBS), glutamine (2 mM), penicillin (100 units/ml) and streptomycin (100 µg/ml) at 37°C with 5% CO2. Media was changed every 2–3 days and cells were passaged when confluent with 0.05% trypsin and 0.02% EDTA.
All experiments were performed in duplicate.

[2] = molecular target: T2, human α1A-AR F86A variant (Homo sapiens, UniProt P35348, F86A); assay: Competition binding with ^125I-HEAT
T2 construct: expressed in transfected cells; host or cells: COS-7, transient (calcium phosphate)
T2 sequence (P35348 1-466 F86A): T1 sequence (P35348 1-466) with F86A
From the text: (§2) α1A-AR cDNA inserted in the prK5 vector was kindly provided by Michael Brownstein (Craig Venter Institute, Rockville, MD). Point mutations were introduced into the α1A-AR gene by sense and antisense primers (Sigma-Aldrich, St Quentin-Fallavier, France) containing the desired changes, using the QuikChange Site-Directed Mutagenesis kit. The incorporation of each mutation was verified by DNA sequencing.
as §1, with “Media was changed every 2–3 days and cells were passaged when confluent with 0.05% trypsin and 0.02% EDTA.” left out
(§3) Binding data were analyzed by nonlinear regression using the KaleidaGraph 4.0 software (Synergy software, Reading, PA). pKD values and Bmax (number of binding sites) were determined by applying a nonlinear regression to data obtained with saturation binding assays. […] Data resulting from competition binding assays were analyzed using the Hill equation for IC50 and curve slope estimations. […] The linear curves were analyzed with IC50 = Ki+(L/KD)*Ki. Dissociation kinetics were analyzed using a simple equation of exponential decay BS * exp (-Koff*t), where BS is the specific binding at time zero and Koff is the dissociation rate constant. Results are expressed as mean ± s.e. mean from n independent experiments. […]

[3] = molecular target: T3, human α1A-AR D106A variant (Homo sapiens, UniProt P35348, D106A); assay: Competition binding with ^125I-HEAT
T3 construct: expressed in transfected cells; host or cells: COS-7, transient (calcium phosphate)
T3 sequence (P35348 1-466 D106A): T1 sequence (P35348 1-466) with D106A
From the text: as §2
as §1, with “Media was changed every 2–3 days and cells were passaged when confluent with 0.05% trypsin and 0.02% EDTA.” left out
as §3

α1A-AR [4] = molecular target: T1, α1A-AR; assay: Competition binding with ^3H-prazosin; set-up: expressed in transfected cells; settings: inhibition of ^3H-prazosin 2 nM
Procedure: CHO cells stably expressing α1-ARs were kindly provided by Dr. Hervé Paris (INSERM U858, Toulouse, France) and were grown in a 50∶50 Dulbecco's Modified Eagle's Medium (DMEM)/Ham's F12 medium supplemented with 10% (v/v) foetal bovine serum (FBS), glutamine (2 mM), penicillin (100 units/ml) and streptomycin (100 µg/ml) at 37°C with 5% CO2. COS-7 cells were grown at 37°C under 5% CO2 in Dulbecco's modified Eagle's medium containing 10% fetal calf serum, 1% penicillin and 1% glutamine (Sigma-Aldrich, St Quentin-Fallavier, France). At 80% confluence, the cells were transfected using a calcium phosphate precipitation method for transient expression of the genetic construct. […]
as §3

[5] = molecular target: T4, human α1A-AR F187A variant (Homo sapiens, UniProt P35348, F187A); assay: Saturation binding of ^125I-HEAT; settings: F187A variant relative to wild type
T4 construct: expressed in transfected cells; host or cells: COS-7, transient (calcium phosphate)
T4 sequence (P35348 1-466 F187A): T1 sequence (P35348 1-466) with F187A
From the text: as §2, §1
(§4) Binding experiments were performed in a 100 µL reaction mix at room temperature in buffer composed of 50 mM Tris-HCl, pH 7.4, 10 mM MgCl2, 1 g/L BSA. Reactions were stopped by filtration through 96 GF/C filter plates pre-incubated with 0.5% polyethylenimine.
Binding data were analyzed by nonlinear regression using the KaleidaGraph 4.0 software (Synergy software, Reading, PA). pKD values and Bmax (number of binding sites) were determined by applying a nonlinear regression to data obtained with saturation binding assays. The nonlinear regression used was BS = (Bmax*A)/KD+A, where BS is the specific binding, Bmax the number of binding sites, A the concentration of radioligand, and KD the dissociation constant of the radioligand. Data resulting from competition binding assays were analyzed using the Hill equation for IC50 and curve slope estimations. […] The linear curves were analyzed with IC50 = Ki+(L/KD)*Ki. Dissociation kinetics were analyzed using a simple equation of exponential decay BS * exp (-Koff*t), where BS is the specific binding at time zero and Koff is the dissociation rate constant. Results are expressed as mean ± s.e. mean from n independent experiments. One-way Anova test was used to compare values. A p<0.05 was accepted for statistical significance.

human α1A-AR WT = molecular target: T5, human α1A-AR WT (Homo sapiens, UniProt P35348); assay: Competition binding with ^125I-HEAT, wild type receptor
T5 construct: expressed in transfected cells; host or cells: COS-7, transient (calcium phosphate)
T5 sequence (P35348 1-466): T1 sequence (P35348 1-466)
Procedure: as §1, §4, §3

α1D-AR = molecular target: α1D-AR; set-up: method as in PMID 20015090; settings: α1D-AR expressed in yeast; read-out: affinity; cited from earlier work
α1B-AR = molecular target: α1B-AR; set-up: method as in PMID 20015090; settings: α1B-AR expressed in yeast; read-out: affinity; cited from earlier work
α1A-AR [6] = test system: α1A-AR; set-up: method as in PMID 20015090; settings: cited from earlier work
[7] = linear fit of ρ-Da1a IC50 against ^125I-HEAT concentration

With `CS(=O)(=O)Nc1c(O)ccc2c1CCCC2C1=NCCN1` (stereo not shown) [A61603] the “Emax, Ca^2+ release” value (α1A-AR [1]; CHO-K1 cells expressing the α1A-AR, agonist alone, A23187 1 µM) was 75.5±1.3 percentage of peak A23187 response.

With `O=C1c2ccccc2CCC1CNCCc1ccc(O)cc1` (stereo not shown) [HEAT] the “Ratio (reduction of affinity relative to WT)” value [2] was 23 ^*, the pKi ([2]; competition with ^125I-HEAT […]) was 8.21±0.09 and the “Ratio (reduction of affinity relative to WT)” value [3] was 0.67. For the same compound, the pKi ([3]; competition with ^125I-HEAT 200 pM) was 9.74±0.12, the Hill slope (α1A-AR [4]) was 0.85 and the pKi (α1A-AR [4]; n = 3) was 9.66±0.08 nM. The “increase in HEAT affinity” value [5] was 4.5 fold, the “Ratio (Ki relative to WT)” value (human α1A-AR WT; WT) was 1 and the pKi (human α1A-AR WT; WT, competition with ^125I-HEAT 200 pM) was 9.57±0.08. It also gave a Kd (human α1A-AR WT; [7]) of 0.0435 nM and a pKd (human α1A-AR WT; [7]) of 10.36.

With `NC[C@H](O)c1ccc(O)c(O)c1` [noradrenaline] the Emax (α1A-AR [1]) was 77.8 ± 1.5%.

Compound `Cc1cc(C(C)(C)C)c(O)c(C)c1CC1=NCCN1` [oxymetazoline] has an Emax (α1A-AR [1]) of 60.8 ± 1.3%.

Compound `CNC[C@H](O)c1cccc(O)c1` [phenylephrine] has an Emax (α1A-AR [1]) of 64.8 ± 2.4%.

For ρ-Da1a, the Ki (α1D-AR) is listed as 420 nM, the Ki (α1B-AR) is listed as 317 nM and the “displacement of ^3H-prazosin binding” value (α1A-AR [6]; yeast membranes expressing the α1A-AR) is listed as 85%. For the same compound, the Ki (α1A-AR [6]; α1A-AR expressed in yeast, read-out: affinity) was 0.35 nM.
